According to PubChem BioAssay AID248 (DTP/NCI, 2004):
Values joined by “and” are separate entries in the source; they are usually repeats but may differ in a detail not shown here. Identical values can stand only once. Toxic doses and inconclusive results are not listed. Cut-off read from the data, not from the text of the source: active = T/C of 150% or more; inactive = T/C below 125%.

Test system: L1210 leukemia ip in BDF1 mice, survival T/C
Experiment: NCI In Vivo Anticancer Drug Screen. Data for tumor model L1210 Leukemia (intraperitoneal) in B6D2F1 (BDF1) mice
Conditions: endpoint: mean survival time, higher = longer survival
Outline: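 Each compound was tested against a transplantable tumor grown in mice. The endpoint was survival, with treated animals benchmarked against vehicle controls as a simple ratio.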

[1] = dose: 75.0 mg/kg/injection, schedule: Q01DX001 (ip), vehicle: saline
[2] = dose: 75.0 mg/kg/injection, schedule: Q04DX003 (ip), vehicle: saline
[3] = dose: 150.0 mg/kg/injection, schedule: Q01DX001 (ip), vehicle: saline
[4] = dose: 150.0 mg/kg/injection, schedule: Q04DX003 (ip), vehicle: saline
[5] = dose: 300.0 mg/kg/injection, schedule: Q01DX001 (ip), vehicle: saline
[6] = dose: 100.0 mg/kg/injection, schedule: Q01DX001 (ip), vehicle: Klucel (hydroxypropylcellulose) (HPC)
[7] = dose: 200.0 mg/kg/injection, schedule: Q01DX001 (ip), vehicle: Klucel (hydroxypropylcellulose) (HPC)
[8] = dose: 400.0 mg/kg/injection, schedule: Q01DX001 (ip), vehicle: Klucel (hydroxypropylcellulose) (HPC)
[9] = dose: 100.0 mg/kg/injection, schedule: Q01DX009 (ip), vehicle: saline with Tween-80
[10] = dose: 100.0 mg/kg/injection, schedule: Q04DX003 (ip), vehicle: saline with Tween-80
[11] = dose: 200.0 mg/kg/injection, schedule: Q01DX009 (ip), vehicle: saline with Tween-80
[12] = dose: 200.0 mg/kg/injection, schedule: Q04DX003 (ip), vehicle: saline with Tween-80
[13] = dose: 100.0 mg/kg/injection, schedule: Q01DX009 (ip), vehicle: Klucel (hydroxypropylcellulose) (HPC)
[14] = dose: 100.0 mg/kg/injection, schedule: Q04DX003 (ip), vehicle: Klucel (hydroxypropylcellulose) (HPC)
[15] = dose: 200.0 mg/kg/injection, schedule: Q01DX009 (ip), vehicle: Klucel (hydroxypropylcellulose) (HPC)
[16] = dose: 200.0 mg/kg/injection, schedule: Q04DX003 (ip), vehicle: Klucel (hydroxypropylcellulose) (HPC)
[17] = dose: 400.0 mg/kg/injection, schedule: Q01DX009 (ip), vehicle: Klucel (hydroxypropylcellulose) (HPC)
[18] = dose: 400.0 mg/kg/injection, schedule: Q01DX009 (ip), vehicle: saline with Tween-80
[19] = dose: 400.0 mg/kg/injection, schedule: Q04DX003 (ip), vehicle: Klucel (hydroxypropylcellulose) (HPC)
[20] = dose: 100.0 mg/kg/injection, schedule: Q01DX001 (ip), vehicle: saline
[21] = dose: 200.0 mg/kg/injection, schedule: Q01DX001 (ip), vehicle: saline
[22] = dose: 12.5 mg/kg/injection, schedule: Q04DX003 (ip), vehicle: saline
[23] = dose: 25.0 mg/kg/injection, schedule: Q04DX003 (ip), vehicle: saline

Measured: T/C

CCCCCCCCCCCCCCCCCC(=O)[O][Sn]([CH2]CCC)([CH2]CCC)[O]C(=O)CCCCCCCCCCCCCCCCC
inactive: dose: 6.25 mg/kg/injection, schedule: Q04DX003 (ip), vehicle: other 100 % of control | dose: 12.5 mg/kg/injection, schedule: Q04DX003 (ip), vehicle: other 114 % of control | dose: 25.0 mg/kg/injection, schedule: Q04DX003 (ip), vehicle: other 101 % of control | dose: 50.0 mg/kg/injection, schedule: Q04DX003 (ip), vehicle: other 101 % of control

CS(=O)(=O)c1nnc(-c2ccc(Cl)c(Cl)c2)s1
inactive: [1] 101 % of control | [2] 110 % of control | [3] 100 % of control | [4] 95 % of control | [5] 110 % of control

Cc1ncc(CN2CSC(CCO)C2C)c(N)n1 (stereo not drawn)
inactive: [6] 95 % of control | [7] 93 % of control | [8] 93 % of control

COc1ccc2ccccc2n1
inactive: [6] 94 % of control | [9] 103 % of control | [10] 103 % of control | [7] 102 % of control | [11] 90 % of control | [12] 98 % of control | [8] 105 % of control

Cc1cccc([N+](=O)[O-])c1-c1ccccc1C(=O)O
inactive: dose: 50.0 mg/kg/injection, schedule: Q04DX003 (ip), vehicle: Klucel (hydroxypropylcellulose) (HPC) 88 % of control | [13] 93 % of control and 95 % of control | [14] 94 % of control | [15] 96 % of control and 103 % of control | [16] 100 % of control | [17] 97 % of control

O[Si](c1ccccc1)(c1ccccc1)c1ccccc1
inactive: [9] 95 % of control | dose: 100.0 mg/kg/injection, schedule: Q04DX002 (ip), vehicle: saline with Tween-80 100 % of control | [11] 88 % of control | dose: 200.0 mg/kg/injection, schedule: Q04DX002 (ip), vehicle: saline with Tween-80 96 % of control | [18] 91 % of control | dose: 400.0 mg/kg/injection, schedule: Q04DX002 (ip), vehicle: saline with Tween-80 87 % of control

COc1cccc(C(Cc2ccccc2)NCc2ccccc2)c1 (stereo not drawn)
inactive: [13] 91 % of control | [15] 91 % of control | [17] 96 % of control

O=c1cc(NCc2cccc([N+](=O)[O-])c2)[nH]c(=O)[nH]1
inactive: dose: 50.0 mg/kg/injection, schedule: Q01DX001 (ip), vehicle: Klucel (hydroxypropylcellulose) (HPC) 91 % of control | [6] 89 % of control | [7] 93 % of control

Fc1c(F)c(F)c(S/C=C/c2ccccc2)c(F)c1F
inactive: [6] 96 % of control | [7] 118 % of control | [8] 105 % of control

CC(C)CC(N)C(=O)NNc1ccccc1 (stereo not drawn)
inactive: [1] 101 % of control | [3] 103 % of control | [5] 108 % of control

O=C(O)c1ccc[n+](Cc2ccccc2)c1
inactive: [2] 90 % of control | [4] 97 % of control | dose: 300.0 mg/kg/injection, schedule: Q04DX003 (ip), vehicle: saline 94 % of control

O=C(O)c1cc2ccccc2o1
inactive: dose: 50.0 mg/kg/injection, schedule: Q01DX009 (ip), vehicle: saline with Tween-80 90 % of control | [9] 97 % of control

CCCCCCCCCC(=O)NN=C(C)C
inactive: dose: 12.5 mg/kg/injection, schedule: Q01DX009 (ip), vehicle: Klucel (hydroxypropylcellulose) (HPC) 92 % of control | dose: 25.0 mg/kg/injection, schedule: Q01DX009 (ip), vehicle: Klucel (hydroxypropylcellulose) (HPC) 105 % of control | dose: 50.0 mg/kg/injection, schedule: Q01DX009 (ip), vehicle: Klucel (hydroxypropylcellulose) (HPC) 116 % of control

C/C=C/CC1(CC)C(=O)NC(=O)NC1=O
inactive: dose: 75.0 mg/kg/injection, schedule: Q01DX001 (ip), vehicle: other 98 % of control | [1] 93 % of control | dose: 150.0 mg/kg/injection, schedule: Q01DX001 (ip), vehicle: other 110 % of control | [3] 102 % of control | dose: 300.0 mg/kg/injection, schedule: Q01DX001 (ip), vehicle: other 96 % of control

COc1ccc(CC/C(=N/O)c2ccccc2)cc1
inactive: dose: 50.0 mg/kg/injection, schedule: Q01DX001 (ip), vehicle: other 94 % of control | dose: 100.0 mg/kg/injection, schedule: Q01DX001 (ip), vehicle: other 100 % of control | dose: 200.0 mg/kg/injection, schedule: Q01DX001 (ip), vehicle: other 90 % of control | dose: 400.0 mg/kg/injection, schedule: Q01DX001 (ip), vehicle: other 102 % of control

Nc1cc2oc3ccccc3c2c2cccnc12
inactive: [6] 103 % of control | [14] 106 % of control | [7] 100 % of control | [16] 103 % of control | [8] 91 % of control | [19] 103 % of control

CCOC(=O)CCCc1cccc(OC)c1OC
inactive: dose: 100.0 mg/kg/injection, schedule: Q01DX001 (ip), vehicle: saline with Tween-80 91 % of control | dose: 200.0 mg/kg/injection, schedule: Q01DX001 (ip), vehicle: saline with Tween-80 91 % of control | dose: 400.0 mg/kg/injection, schedule: Q01DX001 (ip), vehicle: saline with Tween-80 98 % of control

C[C@]12CC[C@@H]3c4ccc(O)cc4CC[C@H]3[C@@H]1CCC(=O)O2
inactive: dose: 100.0 mg/kg/injection, schedule: Q01DX009 (ip), vehicle: saline 97 % of control | dose: 100.0 mg/kg/injection, schedule: Q04DX003 (ip), vehicle: saline 97 % of control | dose: 200.0 mg/kg/injection, schedule: Q01DX009 (ip), vehicle: saline 95 % of control | dose: 200.0 mg/kg/injection, schedule: Q04DX003 (ip), vehicle: saline 90 % of control | dose: 400.0 mg/kg/injection, schedule: Q01DX009 (ip), vehicle: saline 95 % of control | dose: 400.0 mg/kg/injection, schedule: Q04DX003 (ip), vehicle: saline 100 % of control

COc1cc(Cc2cnc(N)nc2N)cc(OC)c1OC
inactive: dose: 50.0 mg/kg/injection, schedule: Q01DX001 (ip), vehicle: saline 101 % of control | [20] 92 % of control | [21] 100 % of control | dose: 400.0 mg/kg/injection, schedule: Q01DX001 (ip), vehicle: saline 97 % of control

CCCCCCCCCNC(C)=O
inactive: [13] 97 % of control | [15] 92 % of control

O=C(Nc1cccc2c1N(C(=O)c1ccco1)CCC2)c1ccco1
inactive: [9] 98 % of control | [10] 94 % of control | [11] 101 % of control | [12] 96 % of control | [18] 95 % of control | dose: 400.0 mg/kg/injection, schedule: Q04DX003 (ip), vehicle: saline with Tween-80 96 % of control

BrCc1cc(CBr)c(CBr)cc1CBr
inactive: dose: 12.5 mg/kg/injection, schedule: Q01DX009 (ip), vehicle: acetone 108 % of control | [22] 97 % of control | [23] 98 % of control and 114 % of control | dose: 50.0 mg/kg/injection, schedule: Q04DX003 (ip), vehicle: saline 95 % of control

CC(=O)CC(C)(C)NC(=S)NN
inactive: [14] 91 % of control | [16] 101 % of control | [19] 91 % of control

COc1cccc(CNc2ccc(SC)cc2)c1OC
inactive: [13] 97 % of control | [14] 94 % of control | [15] 105 % of control | [16] 91 % of control | [17] 94 % of control | [19] 91 % of control

CN(C)CCCN1c2ccccc2Sc2ccc(F)cc21
inactive: dose: 3.12 mg/kg/injection, schedule: Q04DX003 (ip), vehicle: saline 94 % of control | dose: 6.25 mg/kg/injection, schedule: Q04DX003 (ip), vehicle: saline 97 % of control | [22] 108 % of control | [23] 111 % of control

CCN(CC)CCN=Cc1ccccc1OC
inactive: [20] 98 % of control | [21] 101 % of control

CCCCN(C)N=Nc1ccccc1C(=O)OC
inactive: dose: 100.0 mg/kg/injection, schedule: Q01DX001 (ip), vehicle: carboxymethylcellulose (CMC) 107 % of control | dose: 200.0 mg/kg/injection, schedule: Q01DX001 (ip), vehicle: carboxymethylcellulose (CMC) 117 % of control
